In US4207318A, “Novel imidazobenzoxazines” (Roussel Uclaf, priority 1977, dated 1980):
Like-named read-outs stand apart in the source and are kept apart here.

Tested on: Passive cutaneous anaphylaxis
Experiment: Passive cutaneous anaphylaxis (PCA) in rats
Assay type: in vivo
Conditions: Rattus norvegicus, read-out: ED50 (dose of drug giving 50% inhibition), dosed immediately prior to challenge, male rats, ovalbumen antigen
Description: Passive cutaneous anaphylaxis (PCA) in rats
The following compounds were tested for their physiological activity in the test: methyl 8-chloro-4H-imidazo-[2,1-c][1,4]-benzoxazine-2-carboxylate (compound A), methyl 8-methyl-4H-imidazo-[2,1-c][1,4]-benzoxazine-2-carboxylate (compound B), 8-chloro-4H-imidazo-[2,1-c][1,4]-benzoxazine-2-carboxylic acid (compound C), 7-methyl-4H-imidazo-[2,1-c][1,4]-benzoxazine-2-carboxylic acid (compound D), 8-chloro-7-methyl-4H-imidazo-[2,1-c][1,4]-benzoxazine-2-carboxylic acid (compound E), 6-methoxy-4H-imidazo-[2,1-c][1,4]-benzoxazine-2-carboxylic acid (compound F) and 8-methyl-4H-imidazo-[2,1-c][1,4]-benzoxazine-2-carboxylic acid (compound G).
Cutaneous anaphylaxis was induced in rats by intradermal (ID) sensitization with antiserum followed three days later by systemic challenge with antigen. Evans blue dye injected with the antigen is used as a marker to assess the severity of the local response. Anti-allergic drugs inhibit this reaction. This method has been described by OVARY (1962) "Passive Cutaneous Anaphylaxis in Allergology" Page 358-367 Ed. Brown: Pergamon Press. Animals: -male rats weighing 180-220 grams are used in groups of seven.
Preparation of Antigen for Sensitization (Alum precipitated ovalbumen)
1. Wash 120 grams of Al(OH)3 gel in 140 ml of saline (use of a macerater facilitates mixing).
2. Centrifuge at 3,000 rpm for about 10 minutes.
3. Resuspend the precipitate with 300 ml of albumen egg powder (1.3 mg/ml) in saline and allow to stand for 30 minutes.
4. Centrifuge at 3,000 rpm for 10 minutes.
5. Weigh the wet precipitate and to each gram weight add 1 ml of saline. Store in refrigerator (Quantity sufficient for 60 rats for a 3 day sensitization program).
Preparation of Antiserum (anti-ovalbumen)
1 ml of the alum precipitated ovalbumen was injected subcutaneously into rats weighing 180-200 grams on days 0,2,4. The rats were bled on day 14 either by cardiac puncture or via the dorsal abdominal aorta. Equal quantities of serum from each animal were pooled and thoroughly mixed and 2 ml aliquots were stored at -20° C. in plastic tubes.
The antiserum for sensitization was diluted so that an ID injection of 0.1 ml into control animals would give an average score of a single spot of between 2.0-3.5 using 5 point scoring system.
(A) SENSITIZATION: The rats were anaesthetized Nembutal (40-60 mg/kg i.p) and were then sensitized by four ID injections (0.1 ml each) on their shaved backs. The animals were then left for a period of three days to develop sensitization.
(B) […]: The sensitized rats were dosed orally or intraveneously with the drug immediately prior to intraveneous challenge via the superficial penile vein with 1 ml of an antigen/Evans blue mixture (1 mg albumen egg powder in 0.5 ml saline plus 0.5 ml of 1% Evans blue). The injections were speeded up by using an automatic 1 ml self-filling glass syringe. The "challenged" rats were killed after 30 minutes, (usually pithed) and their skin on the dorsal surface was removed. The degree and area of blueing, proportional to the anaphylactic reaction was assessed on a five point scoring system.
1. Total scores for sites 1,2,3 and 4=X
2. Mean value of X for each group=X
X c=X for control group [formula] 5.
ED50 values for the compounds tested in the passive cutaneous anaphylaxis screen (in rats) are as follows: […]

| Structure (SMILES) | ED50 (I.V. (intravenous)) [mg/kg] | ED50 (P.O. (oral)) [mg/kg] |
| --- | --- | --- |
| Cc1cc2c(cc1Cl)-n1cc(C(=O)O)nc1CO2 [E, 8-chloro-7-methyl-4H-imidazo-[2,1-c][1,4]-benzoxazine-2-carboxylic acid] | 0.75 | – |
| Cc1ccc2c(c1)-n1cc(C(=O)O)nc1CO2 [G, 8-methyl-4H-imidazo-[2,1-c][1,4]-benzoxazine-2-carboxylic acid] | 0.35 | 0.37 |
| COC(=O)c1cn2c(n1)COc1ccc(C)cc1-2 [B, methyl 8-methyl-4H-imidazo-[2,1-c][1,4]-benzoxazine-2-carboxylate] | – | 1.46 |
| COC(=O)c1cn2c(n1)COc1ccc(Cl)cc1-2 [A, methyl 8-chloro-4H-imidazo-[2,1-c][1,4]-benzoxazine-2-carboxylate] | – | 2.79 |
| O=C(O)c1cn2c(n1)COc1ccc(Cl)cc1-2 [C, 8-chloro-4H-imidazo-[2,1-c][1,4]-benzoxazine-2-carboxylic acid] | 0.42 | 0.13 |
| COc1cccc2c1OCc1nc(C(=O)O)cn1-2 [F, 6-methoxy-4H-imidazo-[2,1-c][1,4]-benzoxazine-2-carboxylic acid] | 3.27 | – |
| Cc1ccc2c(c1)OCc1nc(C(=O)O)cn1-2 [D, 7-methyl-4H-imidazo-[2,1-c][1,4]-benzoxazine-2-carboxylic acid] | 0.39 | 4 |
